Substitutions are numbered along the chain they refer to. Read-outs that look alike come from different tables or passages of the source.
Key:
Format in all cases: cell-based
murine Mincle = molecular target: T1, murine Mincle (Mus musculus, UniProt Q9R0Q8); assay: Mincle activation assay, murine Mincle-FcRγ GFP reporter cell line with plate-coated lipids
T1 construct: expressed in transfected cells; host or cells: 2B4-NFAT-GFP cells
T1 sequence (Q9R0Q8 1-214): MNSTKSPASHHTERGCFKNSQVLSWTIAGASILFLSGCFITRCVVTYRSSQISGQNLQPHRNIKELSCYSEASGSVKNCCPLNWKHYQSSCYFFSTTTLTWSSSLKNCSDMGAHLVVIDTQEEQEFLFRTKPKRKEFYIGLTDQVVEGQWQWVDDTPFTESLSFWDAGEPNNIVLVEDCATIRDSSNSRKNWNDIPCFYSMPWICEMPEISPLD
T1 sequence (P20491 19-86 partner): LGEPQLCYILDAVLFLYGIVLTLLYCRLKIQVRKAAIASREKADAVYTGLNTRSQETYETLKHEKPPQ

FcRγ = assay: Negative control reporter cell line expressing FcRγ only; settings: FIG. 3D
human Mincle = molecular target: T2, human Mincle (Homo sapiens, UniProt Q9ULY5); assay: Mincle activation assay, human Mincle-FcRγ GFP reporter cell line with plate-coated lipids; settings: FIG. 3D
T2 construct: expressed in transfected cells; host or cells: 2B4-NFAT-GFP cells
T2 sequence (Q9ULY5 1-219): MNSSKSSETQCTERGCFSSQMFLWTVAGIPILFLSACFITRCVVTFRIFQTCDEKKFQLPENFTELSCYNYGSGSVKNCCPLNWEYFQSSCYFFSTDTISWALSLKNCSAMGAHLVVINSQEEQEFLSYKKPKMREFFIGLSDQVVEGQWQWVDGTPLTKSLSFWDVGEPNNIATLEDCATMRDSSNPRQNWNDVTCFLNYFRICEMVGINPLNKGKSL
T2 sequence (P30273 19-86 partner): T1 sequence (P20491 19-86 partner) with V13I, A38T, R40Y, A43S, A45G, N51S, S54N

Row | Compound | amount of coated lipid at which reporter cells respond (GFP expression) (murine Mincle) [ng] | relative sensitivity of murine Mincle to diPT versus TDM (murine Mincle; FIG. 3D) | activation of murine Mincle reporter cell line (murine Mincle; comparison of murine and human reporter lines, FIG. 3D) | amount of coated lipid at which reporter cells respond (GFP expression) (murine Mincle; murine Mincle-FcRγ reporter cell line, plate-coated lipid, FIG. 3C) [ng] | activation of negative control cell line expressing FcRγ only (FcRγ) | relative sensitivity of human Mincle to diPT versus TDM (human Mincle) | activation of human Mincle reporter cell line (human Mincle; comparison of murine and human reporter lines)
1 | 6,6′-diphosphatidyltrehalose [natural diPT] | 5 | – | – | – | – | – | –
2 | trehalose dimycolate [TDM, reference compound] | 5 | – | – | – | – | – | –
3 | CCCCCCCCCCCCCCCC(=O)OC[C@H](COP(=O)(O)OCC1OC(OC2OC(COP(=O)(O)OC[C@@H](COC(=O)CCCCCCCCCCCCCCC)OC(=O)CCCCCCC[C@H]3C[C@H]3CCCCCC)C(O)C(O)C2O)C(O)C(O)C1O)OC(=O)CCCCCCC[C@H]1C[C@H]1CCCCCC (some centres unmarked) [synthetic diPT, 6,6′-diphosphatidyltrehalose] | – | the opposite is true | activation present at nanogram levels | 20 | failed to activate | marginally more sensitive to diPT than to TDM | activation present at nanogram levels

Source: patent US12503482B2, “Compositions and methods for trehalose phospholipids” (The Brigham and Women's Hospital, Inc., priority 2019, dated 2025)
